Results published in patent US20250032636A1, “Phage-Drug Conjugate” (The University of Sydney, priority 2021, published 2025).
Read-outs that look alike come from different tables or passages of the source.

Legend:
[1] = test system: P. aeruginosa biofilm bacteria; test: Biofilm bacteria viability by CFU counting (drop-plate method); type: cell-based, Pseudomonas aeruginosa PAO1; settings: FIG. 8; single component alone (AMK 4 or 8 μg/mL, nitroxide 2 mM, phage 10^6 PFU/mL); 2 h treatment
Protocol: The cells in the treated and untreated groups were counted using the drop-plated method to determine the biofilm bacteria viability. Biofilms on the surface of the wells were rinsed with once 1 mL PBS and then were resuspended in 1 mL PBS. The 24-well plates were placed in an ultrasonication bath for 5 min before viable cells count assay. The re-suspended biofilm bacteria were serially diluted 10-fold (10^−1 to 10^−10) in PBS, and 10 μL of each dilution was dropped onto MH agar plates in duplicate, which were incubated at 37° C. overnight. The results are presented as CFU mL^−1. A graph illustrating the effects of different POEGA-b-PVBA conjugated formulations on biofilm cell survival are shown in FIG. 8.
(§1) Biofilm dispersal and bacterial viability assays were conducted as described above using samples set out in Table 2. A graph illustrating the effects of different POEGA-b-PPFPA conjugated formulations on biofilm dispersal are shown in FIG. 13 and on biofilm cell survival are shown in FIG. 14.

P. aeruginosa W.T. PAO1 = test: Minimum inhibitory concentration (MIC), broth microdilution; type: cell-based, Pseudomonas aeruginosa; settings: 37° C., 24 h
Protocol: The minimum inhibitory concentration (MIC) of the antimicrobial agents was measured using the broth microdilution technique. A bacterial culture medium with 10^5-10^6 CFU mL^−1 was prepared freshly in Mueller-Hinton (MH) broth and added to a 2-fold serial dilution of antimicrobial agents in 96-well microplates. A cell-only control and a medium-only control were also included in the same microplate. The 96-well microplates were incubated at 37° C. for 24 h. MIC was determined to be the concentration of antimicrobial agents at which the optical density (OD600) was equal to that of a medium-only control using a multimode microplate reader (VICTOR™ X4, Perkin-Elmer). The MIC can also be recorded as the lowest concentration preventing visible bacterial growth after 24 h.

P. aeruginosa biofilm [2] = test: Biofilm dispersal assay, crystal violet staining of biofilm biomass; type: cell-based, Pseudomonas aeruginosa PAO1
Protocol: (§2) A Pseudomonas aeruginosa PAO1 inoculum was freshly prepared by inoculating one colony in 10 mL of LB broth and incubating on an orbital shaker at 220 rpm at 37° C. for 16-17 h. The bacterium culture medium was diluted 200-fold to an optical density at 600 nm (OD600) between 0.003-0.005 in M9 minimal medium (containing 48 mM Na2HPO4, 22 mM KH2PO4, 9 mM NaCl, 19 mM NH4Cl, 2 mM MgSO4, 0.1 mM CaCl2), and 20 mM glucose, pH 7.0). This medium was freshly prepared for each experiment.
For the biofilm inhibition assay, various treatment formulations were added to the 24-well microtiter plates simultaneously as cell culture media placement. The plates were incubated on an orbital shaker at 180 rpm for 6 h incubation at 37° C. For this 6 h biofilm dispersal assay, the plates were incubated on an orbital shaker at 180 rpm for 6 h at 37° C. for biofilm formation. Planktonic bacteria were removed, and 1 mL of fresh M9 minimal medium was added to each well, followed by each treatment addition. […]
The concentrations of each component used for the treatments would be based on their individual effects on biofilm dispersal. […]
(§3) The biofilm biomass was analysed by crystal violet (CV) staining. The biofilm on each well surface of the plates was washed once with 1 mL PBS before CV staining. 1 mL of 0.1% CV solution made by a 1:20 dilution of 2% CV aqueous solution in PBS. The CV stained biofilm was washed twice with 1 mL PBS after 20 min incubation. The remaining CV stained biofilm was dissolved in 33% glacial acetic acid and quantified by measuring the absorbance at 550 nm (OD550) using a multimode microplate reader (VICTOR™ X4, Perkin-Elmer). All biofilm assays were performed in two independent experiments.
as §1

P. aeruginosa biofilm [3] = test: Biofilm formation inhibition assay, crystal violet staining; type: cell-based, Pseudomonas aeruginosa PAO1; settings: 6 h
Protocol: as §2
For the biofilm inhibition assay, various treatment formulations were added to the 24-well microtiter plates simultaneously as cell culture media placement. The plates were incubated on an orbital shaker at 180 rpm for 6 h incubation at 37° C. For this 6 h biofilm dispersal assay, the plates were incubated on an orbital shaker at 180 rpm for 6 h at 37° C. for biofilm formation. Planktonic bacteria were removed, and 1 mL of fresh M9 minimal medium was added to each well, followed by each treatment addition. The plates were incubated for a further 2.5-3 h before quantifying the biofilm biomass and viabilities of biofilm bacteria.
as §3

P. aeruginosa biofilms = test: Confocal microscopy of LIVE/DEAD stained biofilms; type: cell-based, Pseudomonas aeruginosa; settings: nitroxide at 2 mM; LIVE/DEAD staining, FIG. 9
Protocol: For microscopy analysis, P. aeruginosa biofilms were grown in glass-bottom 24-well plates (MatTek Corporation, Ashland MA, USA) for 6 h. After 3 h treatment, biofilms were rinsed twice with PBS before being stained with LIVE/DEAD® BacLight™ bacterial viability kit reagents (L-7007, Molecular Probes) according to the manufacturer's procedure. According to the manufacturer's procedure, 1 to 10 dilution of each of the two components was freshly prepared with PBS. 0.3 mL of the mixed solution was added to each well for 20 min incubation, and the plate was kept in the dark condition. The samples were analysed using confocal laser scanning microscopy (CLSM) with a Nikon A1 confocal microscope. Representative confocal images showing P. aeruginosa biofilms treated with POEGA-b-PVBA conjugated formulations are shown in FIG. 9.

Structure (SMILES) | survival of biofilm bacteria [1] | MIC (P. aeruginosa W.T. PAO1; Pseudomonas aeruginosa, PAO1, MH broth, read-out: MIC) [µg/mL] | reduction of biofilm biomass of pre-established P. aeruginosa biofilm (P. aeruginosa biofilm [2]; AMK alone at 32 μg mL^−1, 8×MIC, 6 h biofilm, 2 h treatment) [%] | effect on biofilm dispersal (P. aeruginosa biofilm [2]; cotreatment study FIG. 7, AMK 4 or 8 μg/ml, phage 10^6 PFU mL^−1, 6 h biofilm, 2 h treatment) | effect on inhibiting the formation of biofilms (P. aeruginosa biofilm [3]; AMK at a higher concentration than 4 μg mL^−1) | concentration at which biofilm formation was inhibited (P. aeruginosa biofilm [3]; added with inoculated culture) [µg/mL] | MIC (P. aeruginosa W.T. PAO1; MH broth) [mM] | P. aeruginosa biofilm dispersal (P. aeruginosa biofilm [2]; comparative example, FIG. 13A, printed: nitroxide agent alone at AMK concentration of 8 μg/mL) | reduction of biofilm biomass (P. aeruginosa biofilm [2]; cotreatment study FIG. 7, nitroxide 2 mM, phage 10^6 PFU mL^−1, AMK 4 and 8 μg mL^−1, POEGA-b-PVBA linker, 2 h treatment) | P. aeruginosa biofilm dispersal (P. aeruginosa biofilm [2]; nitroxide alone at 2 mM, 6 h biofilm, 2 h treatment) [%] | P. aeruginosa biofilm dispersal (P. aeruginosa biofilm [2]; nitroxide alone at 5 mM, 6 h biofilm, 2 h treatment) [%] | biofilm biovolume, confocal (P. aeruginosa biofilms) | inhibition of biofilm formation (P. aeruginosa biofilm [3]; nitroxide concentration range of 1 to 5 mM)
NCC[C@H](O)C(=O)N[C@@H]1C[C@H](N)[C@@H](O[C@H]2O[C@H](CN)[C@@H](O)[C@H](O)[C@H]2O)[C@H](O)[C@H]1O[C@H]1O[C@H](CO)[C@@H](O)[C@H](N)[C@H]1O [AMK, amikacin] | did not affect | 4 | 10 | did not have an effect | strong effect | 4 |  |  |  |  |  |  | 
CC1(C)CC(N)CC(C)(C)N1[O] [nitroxide, 4-amino-2,2,6,6-tetramethyl-piperidinyloxyl] | did not affect |  |  |  |  |  | 6 | about 30% | about 30% | 30 | 70 | greatly reduced biofilm biovolume | significantly inhibited biofilm formation
